Patent US8901118B2, “Compounds and methods for kinase modulation, and indications therefor” (Plexxikon Inc., priority 2010, dated 2014)
pIC50: −log10 of the molar value.

Key:
CYP3A4(BQ) = CYP3A4(BQ) (Homo sapiens, UniProt P08684); experiment: CYP3A4(BQ) inhibition; assay type: in vitro ADME; details: CYP3A4, substrate BQ; read-out: Cyp IC50 3A4(BQ)
Protocol: (§1) CYP (Cytochrome P450) enzymes are the major drug metabolizing enzymes present in the liver. The inhibition of CYP enzyme activity (IC50) for each of CYP1A2, CYP2C19, CYP2C9, CYP2D6, CYP3A4(BFC) and CYP3A4(BQ) is determined for compounds, where inhibition of metabolism of a known substrate leads to a decrease in the fluorescence of the metabolized product. The fluorescence of the product is monitored as a function of compound concentration. Compounds are dissolved in DMSO to a concentration of 100 mM. These are diluted 1 μL into 82 μL of acetonitrile. An 11 μL aliquot of this solution is then added to 204 μL of cofactor mix (1.3% NADPH Regeneration system Solution A, 1.04% NADPH Regeneration system Solution B from BD Biosciences, 5% acetonitrile and 0.05% DMSO). These are then serially diluted 1:1 (160 μL to 160 μL co-factor mix) for a total of 10 points. A 10 μL aliquot of this final mixture is dispensed into 384 well assay plates and incubated for 10 minutes at 37° C. […] Assay plates are incubated at 37° C. (CYP1A2-15 min; CYP2C9-45 min; CYP2C19, 2D6 and 3A4-30 min) and read in a Tecan Safire 2 plate reader (CYP1A2, 2C19 and 3A4 409 ex/460 em; CYP2C9 and 2D6 409 ex/530 em). The signal versus compound concentration is used to determine the IC50. The enzymes and substrates for this assay are obtained from BD Biosciences.

CYP2C9 = CYP2C9 (Homo sapiens, UniProt P11712); experiment: CYP2C9 inhibition (fluorescent substrate MFC); assay type: in vitro ADME; details: read-out: Cyp IC50 2C9
Protocol: as §1

CYP2D6 = CYP2D6 (Homo sapiens, UniProt P10635); experiment: CYP2D6 inhibition (fluorescent substrate AMMC); assay type: in vitro ADME; details: read-out: Cyp IC50 2D6
Protocol: as §1

BCR-NTRK3 BaF3 cells = molecular target: T1, BCR-NTRK3 BaF3 cells (Homo sapiens, UniProt Q16288); experiment: BaF3 BCR-NTRK3 cell proliferation assay (ATPlite); assay type: cell-based; details: read-out: Inhibition of Cell Proliferation IC50, BCR/BaF3 TrkC
T1 construct: fused on or other part: P11274 (Breakpoint cluster region protein)
Protocol: Compounds are assessed in a variety of cell based assays. For example BaF3 cells engineered with any of BCR-FMS, BCR-KIT, BCR-FLT3, BCR-NTRK1, BCR-NTRK2, and BCR-NTRK3, are used in cell proliferation assays to assess inhibitory activity of Fms, Kit, Flt-3, TrkA, TrkB, and TrkC, respectively. An MV-4-11 (leukemia) cell proliferation assay is used to assess inhibitory activity in Flt-3, and SKNSH (human neuroblastoma) cell proliferation assay is used to assess efficacy of Fms/Trk inhibitors. Additional cells may be assayed similarly to assess the efficacy of Fms/Trk inhibitors, such as MiaPaCa (human pancreatic cancer) and Capan-1 (human pancreatic carcinoma) cells. Reagent and assay conditions are as follows: • BaF3 cells: • Maintained in RPMI containing 10% FBS, 1% PenStrep, 1% NEAA, and 1% L-Glutamine, supplemented with 1 mg/mL G418 and 5% WEHI-CM (or recombinant murine IL-3). • Confluent cells are split 1:50 to 1:100 every 3-4 days. • MV-4-11 cells: • Maintained in Iscove's Modified Dulbecco's Medium containing 10% FBS. • Confluent cells are split 1:4 every 3-4 days. • SKNSH cells: RPMI containing 10% FBS. On day 1, cells are counted, then centrifuged in a conical tube for 5 minutes at 1000 rpm. The supernatant is removed and cells are re-suspended as follows: • BaF3: resuspend in growth media +1 mg/mL G418 (without WEHFIL-3) to 2×10^5 cells/mL. • MV-4-11: resuspend in growth media to 5×10^5 cells/mL. • SKNSH: resuspend in growth media to 2×10^4 cells/mL. The cells are plated (50 μL, 150 μL for SKNSH cells) in each well of a 96-well dish (Corning 3610) and incubated at 37° C. in 5% CO2 overnight, cells plated to a final concentration of cells as follows: • BaF3: 10,000 cells per well. • MV-4-11: 25,000 cells per well. • SKNSH: 3,000 cells per well. On day 2, compound at a maximum concentration of 5 mM is serially diluted 1:3 for a total of 8 point titration with DMSO as a control. A 1 μL aliquot of each dilution point is added to 249 μL growth media and 50 μL is added to a well containing cells, providing 10 μM compound for the maximum concentration point. The cells are incubated for 3 days at 37° C. in 5% CO2. For SKNSH cells, a 0.75 μL aliquot of appropriate dilution in DMSO is added to 150 μL of cells. On day 5, ATPlite 1 step Luminescence Assay System (Perkin Elmer #6016739) is brought to room temperature along with the cell cultures. ATPlite is added to each well as follows: • BaF3: 25 μL per well. • MV-4-11: 40 μL per well. • SKNSH: 20 μL per well. The cells are incubated at room temperature for 10 minutes, then luminescence is read on Safire reader. The measured luminescence correlates directly with cell number, such that the reading as a function of compound concentration is used to determine the IC50 value.
It is understood that the results of these assays may vary as assay conditions are varied. Inhibition levels determined under the conditions described herein represent a relative activity for the compounds tested under the specific conditions employed. The cell based assays are likely to show variability due to the complexity of the system and the sensitivity thereof to any changes in the assay conditions. […] Results for compounds that are tested and show substantially no inhibition below the highest tested concentration are represented as “-” in the tables below. In some instances, the compounds were not tested in all of the assays, or assay results were not valid, as indicated by NA in the tables below.

Sequence of CYP2C9 (P11712 whole entry): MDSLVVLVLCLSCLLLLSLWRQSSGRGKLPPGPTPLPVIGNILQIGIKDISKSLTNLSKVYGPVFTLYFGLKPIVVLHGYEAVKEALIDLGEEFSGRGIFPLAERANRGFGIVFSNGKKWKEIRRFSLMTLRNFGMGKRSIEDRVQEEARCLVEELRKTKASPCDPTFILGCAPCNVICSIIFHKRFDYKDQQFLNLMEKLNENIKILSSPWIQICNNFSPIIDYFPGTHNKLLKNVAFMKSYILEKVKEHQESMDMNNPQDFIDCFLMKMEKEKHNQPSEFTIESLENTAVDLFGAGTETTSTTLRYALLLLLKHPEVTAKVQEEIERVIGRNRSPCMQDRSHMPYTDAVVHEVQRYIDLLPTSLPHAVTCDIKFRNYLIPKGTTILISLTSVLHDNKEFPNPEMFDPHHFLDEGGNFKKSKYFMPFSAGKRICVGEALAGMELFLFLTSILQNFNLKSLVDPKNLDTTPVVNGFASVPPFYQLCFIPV
Sequence of CYP3A4(BQ) (P08684 whole entry): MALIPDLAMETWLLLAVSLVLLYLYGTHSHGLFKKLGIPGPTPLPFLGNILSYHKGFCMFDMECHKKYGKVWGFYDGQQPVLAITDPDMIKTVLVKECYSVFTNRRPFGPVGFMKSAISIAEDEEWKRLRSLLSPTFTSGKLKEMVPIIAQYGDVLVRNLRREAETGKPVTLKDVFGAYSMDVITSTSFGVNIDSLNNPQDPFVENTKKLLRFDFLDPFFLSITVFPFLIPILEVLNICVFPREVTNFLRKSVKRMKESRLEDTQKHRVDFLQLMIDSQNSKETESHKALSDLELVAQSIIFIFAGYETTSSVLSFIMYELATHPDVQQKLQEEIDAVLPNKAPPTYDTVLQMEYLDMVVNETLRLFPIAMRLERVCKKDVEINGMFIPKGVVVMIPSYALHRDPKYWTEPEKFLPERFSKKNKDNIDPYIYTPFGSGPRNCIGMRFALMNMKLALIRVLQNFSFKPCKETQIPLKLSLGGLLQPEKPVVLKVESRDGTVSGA
T1 sequence (Q16288 whole entry, the tested form may be a part): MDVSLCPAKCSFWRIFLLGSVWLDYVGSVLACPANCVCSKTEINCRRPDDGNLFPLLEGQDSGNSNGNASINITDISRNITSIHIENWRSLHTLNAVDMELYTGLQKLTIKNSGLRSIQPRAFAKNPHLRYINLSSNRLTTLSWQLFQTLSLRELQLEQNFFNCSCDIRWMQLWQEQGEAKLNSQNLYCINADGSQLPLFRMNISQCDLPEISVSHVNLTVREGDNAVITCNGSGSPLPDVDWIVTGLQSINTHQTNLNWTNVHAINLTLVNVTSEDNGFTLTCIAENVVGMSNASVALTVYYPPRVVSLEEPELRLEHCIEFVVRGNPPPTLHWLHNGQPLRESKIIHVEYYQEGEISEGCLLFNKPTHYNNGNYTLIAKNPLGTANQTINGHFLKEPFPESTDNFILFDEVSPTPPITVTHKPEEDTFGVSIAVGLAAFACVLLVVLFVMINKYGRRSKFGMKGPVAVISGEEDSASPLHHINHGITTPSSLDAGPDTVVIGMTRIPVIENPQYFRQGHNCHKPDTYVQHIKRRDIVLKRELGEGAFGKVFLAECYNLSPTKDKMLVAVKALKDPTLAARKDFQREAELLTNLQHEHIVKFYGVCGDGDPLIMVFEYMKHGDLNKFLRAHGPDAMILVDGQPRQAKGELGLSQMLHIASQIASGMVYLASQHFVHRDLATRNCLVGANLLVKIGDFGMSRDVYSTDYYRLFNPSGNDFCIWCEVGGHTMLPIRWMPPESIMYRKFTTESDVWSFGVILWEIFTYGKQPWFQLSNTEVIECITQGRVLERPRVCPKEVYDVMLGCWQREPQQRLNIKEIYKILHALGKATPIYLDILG
Sequence of CYP2D6 (P10635 whole entry): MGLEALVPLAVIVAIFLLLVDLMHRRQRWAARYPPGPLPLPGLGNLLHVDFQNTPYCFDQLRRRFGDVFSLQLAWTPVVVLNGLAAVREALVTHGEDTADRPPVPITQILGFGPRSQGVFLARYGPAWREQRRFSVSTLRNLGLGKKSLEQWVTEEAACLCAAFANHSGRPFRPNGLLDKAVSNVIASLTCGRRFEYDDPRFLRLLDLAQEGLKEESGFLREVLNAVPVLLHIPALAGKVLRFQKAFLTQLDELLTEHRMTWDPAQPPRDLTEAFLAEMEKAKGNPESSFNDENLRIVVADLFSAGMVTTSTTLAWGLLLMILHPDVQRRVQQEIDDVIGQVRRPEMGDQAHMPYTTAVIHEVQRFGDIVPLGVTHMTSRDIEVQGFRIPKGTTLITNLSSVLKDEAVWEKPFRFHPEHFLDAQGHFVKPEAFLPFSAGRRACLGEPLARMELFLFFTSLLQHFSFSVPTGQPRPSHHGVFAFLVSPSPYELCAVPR

Structure (SMILES)	pIC50 (CYP3A4(BQ))	pIC50 (CYP2C9)	pIC50 (CYP2D6)	pIC50 (BCR-NTRK3 BaF3 cells)
CCc1ccc(Nc2ccc(C(=O)c3c[nH]c4ncnc(NCC(C)(C)O)c34)c(F)n2)cn1 [Compound P-4064, [6-[(6-ethyl-3-pyridyl)amino]-2-fluoro-3-pyridyl]-[4-[(2-hydroxy-2-methyl-propyl)amino]-7H-pyrrolo[2,3-d]pyrimidin-5-yl]methanone]	< 5.00	< 5.00	< 5.00	> 8.00
CCc1ccc(Nc2ccc(C(=O)c3c[nH]c4ncnc(N)c34)c(F)n2)cn1 [Compound P-4065, (4-amino-7H-pyrrolo[2,3-d]pyrimidin-5-yl)-[6-[(6-ethyl-3-pyridyl)amino]-2-fluoro-3-pyridyl]methanone]	< 5.00	< 5.00	< 5.00	> 8.00
COc1ccc(Nc2ccc(C(=O)c3c[nH]c4ncnc(NC(C)C)c34)c(F)n2)cn1 [Compound P-4066, [2-fluoro-6-[(6-methoxy-3-pyridyl)amino]-3-pyridyl]-[4-(isopropylamino)-7H-pyrrolo[2,3-d]pyrimidin-5-yl]methanone]	5.00 to 5.30	< 5.00	< 5.00	> 8.00
COc1ccc(Nc2ccc(C(=O)c3c[nH]c4ncnc(NCC5CC5)c34)c(F)n2)cn1 [Compound P-4067, [4-(cyclopropylmethylamino)-7H-pyrrolo[2,3-d]pyrimidin-5-yl]-[2-fluoro-6-[(6-methoxy-3-pyridyl)amino]-3-pyridyl]methanone]	< 5.00	< 5.00	< 5.00	> 8.00
CCCNc1ncnc2[nH]cc(C(=O)c3ccc(Nc4ccc(OC)nc4)nc3F)c12 [Compound P-4068, [2-fluoro-6-[(6-methoxy-3-pyridyl)amino]-3-pyridyl]-[4-(propylamino)-7H-pyrrolo[2,3-d]pyrimidin-5-yl]methanone]	< 5.00	< 5.00	< 5.00	> 8.00
COc1ccc(Nc2ccc(C(=O)c3c[nH]c4ncnc(N5CCCCC5)c34)c(F)n2)cn1 [Compound P-4069, [2-fluoro-6-[(6-methoxy-3-pyridyl)amino]-3-pyridyl]-[4-(1-piperidyl)-7H-pyrrolo[2,3-d]pyrimidin-5-yl]methanone]	< 5.00	< 5.00	< 5.00	< 6.00
COc1ccc(Nc2ccc(C(=O)c3c[nH]c4ncnc(N5CCOCC5)c34)c(F)n2)cn1 [Compound P-4070, [2-fluoro-6-[(6-methoxy-3-pyridyl)amino]-3-pyridyl]-(4-morpholino-7H-pyrrolo[2,3-d]pyrimidin-5-yl)methanone]	< 5.00	< 5.00	< 5.00	< 6.00
COc1ccc(Nc2ccc(C(=O)c3c[nH]c4ncnc(NCc5ccc(C(F)(F)F)nc5)c34)c(F)n2)cn1 [Compound P-4071, [2-fluoro-6-[(6-methoxy-3-pyridyl)amino]-3-pyridyl]-[4-[[6-(trifluoromethyl)-3-pyridyl]methylamino]-7H-pyrrolo[2,3-d]pyrimidin-5-yl]methanone]	< 5.00	< 5.00	< 5.00	> 8.00
COc1ccc(Nc2ccc(C(=O)c3c[nH]c4ncnc(N[C@@H](C)c5ccc(F)cc5)c34)c(F)n2)cn1 [Compound P-4072, [2-fluoro-6-[(6-methoxy-3-pyridyl)amino]-3-pyridyl]-[4-[[(1S)-1-(4-fluorophenyl)ethyl]amino]-7H-pyrrolo[2,3-d]pyrimidin-5-yl]methanone]	< 5.00	5.00 to 5.30	5.00 to 5.30	> 8.00
COc1ccc(Nc2ccc(C(=O)c3c[nH]c4ncnc(NCC5CCCO5)c34)c(F)n2)cn1 (stereo not drawn) [Compound P-4073, [2-fluoro-6-[(6-methoxy-3-pyridyl)amino]-3-pyridyl]-[4-(tetrahydrofuran-2-ylmethylamino)-7H-pyrrolo[2,3-d]pyrimidin-5-yl]methanone]	< 5.00	< 5.00	< 5.00	> 8.00
CCN1CCC(Nc2ncnc3[nH]cc(C(=O)c4ccc(Nc5ccc(OC)nc5)nc4F)c23)CC1 [Compound P-4074, [4-[(1-ethyl-4-piperidyl)amino]-7H-pyrrolo[2,3-d]pyrimidin-5-yl]-[2-fluoro-6-[(6-methoxy-3-pyridyl)amino]-3-pyridyl]methanone]	< 5.00	< 5.00	< 5.00	> 8.00
COc1ccc(Nc2ccc(C(=O)c3c[nH]c4ncnc(NC5CCCC5)c34)c(F)n2)cn1 [Compound P-4075, [4-(cyclopentylamino)-7H-pyrrolo[2,3-d]pyrimidin-5-yl]-[2-fluoro-6-[(6-methoxy-3-pyridyl)amino]-3-pyridyl]methanone]	< 5.00	< 5.00	< 5.00	> 8.00
COc1ccc(Nc2ccc(C(=O)c3c[nH]c4ncnc(NC5CCC5)c34)c(F)n2)cn1 [Compound P-4076, [4-(cyclobutylamino)-7H-pyrrolo[2,3-d]pyrimidin-5-yl]-[2-fluoro-6-[(6-methoxy-3-pyridyl)amino]-3-pyridyl]methanone]	< 5.30	< 5.00	< 5.00	> 8.00
CCC(CC)Nc1ncnc2[nH]cc(C(=O)c3ccc(Nc4ccc(OC)nc4)nc3F)c12 [Compound P-4077, [4-(1-ethylpropylamino)-7H-pyrrolo[2,3-d]pyrimidin-5-yl]-[2-fluoro-6-[(6-methoxy-3-pyridyl)amino]-3-pyridyl]methanone]	< 5.00	< 5.00	< 5.00	> 8.00
CCC(C)Nc1ncnc2[nH]cc(C(=O)c3ccc(Nc4ccc(OC)nc4)nc3F)c12 (stereo not drawn) [Compound P-4078, [2-fluoro-6-[(6-methoxy-3-pyridyl)amino]-3-pyridyl]-[4-(sec-butylamino)-7H-pyrrolo[2,3-d]pyrimidin-5-yl]methanone]	< 5.00	< 5.00	< 5.00	> 8.00
